Experimental data taken from patent publication US20200017496A1 (priority 2017, published 2020).
Where two headings read alike, the source gives them in different places.

Experiments:
[1] = test system: Enterobacter cloacae (ECL) isolates; assay: MIC of compounds alone and combined with antibacterials, broth microdilution (CLSI); format: cell-based; details: for MIC: Enterobacter cloacae; for MIC ATB in combination: antibacterial combined with AF1 @ 4 μg/mL
Description: (§1) Method 2: MIC of Compounds Alone and Combined with Antibacterials Against Bacterial Isolates.
(§2) Compounds of the present invention were assessed against genotyped bacterial strains (Table 3, 4) alone or in combination with an antibacterial (Table 2). […] Log phase bacterial suspensions were adjusted to a final density of 5·10^5 CFU/mL in cation-adjusted Mueller-Hinton broth (ca-MHB; Becton-Dickinson and Company) and added to each well (98 μL). Microplates were incubated for 16-20 h at 35° C. in ambient air. The MIC of the compounds was defined as the lowest concentration of said compounds that prevented bacterial growth as read by visual inspection. The MIC of ATB at each compound concentration was defined as the lowest concentration of ATB that prevented bacterial growth as read by visual inspection.

[2] = test system: Escherichia coli (ECO) isolates; assay: as above; format: cell-based; details: for MIC: Escherichia coli
Description: as §1, §2

## CC1(C)S[C@@H]2[C@H](NC(=O)[C@H](N)c3ccc(O)cc3)C(=O)N2[C@H]1C(=O)O [AMX, Amoxicillin]
[1]; strain ECL UFR14 (TEM-1, SHV-12, CTX-M-15, DHA-1, OXA-1, OXA-48), CLA @ 4 μg/ml+ ATB
  MIC: > 128 µg/mL
[1]; strain ECL UFR60 (TEM-1, CTX-M-15, KPC-2), ATB alone
  MIC: > 256 µg/mL
[1]; strain ECL UFR60 (TEM-1, CTX-M-15, KPC-2), CLA @ 4 μg/ml+ ATB
  MIC: > 128 µg/mL
[1]; strain ECL UFR70 (TEM-1, CTX-M-15, CMY-2, OXA-1, Porin loss), ATB alone
  MIC: > 256 µg/mL
[1]; strain ECL UFR70 (TEM-1, CTX-M-15, CMY-2, OXA-1, Porin loss), CLA @ 4 μg/ml+ ATB
  MIC: > 128 µg/mL
[1]; strain ECL UFR84 (TEM-1, AmpC, OXA-1), ATB alone
  MIC: > 256 µg/mL
[1]; strain ECL UFR84 (TEM-1, AmpC, OXA-1), CLA @ 4 μg/ml+ ATB
  MIC: > 128 µg/mL
[1]; strain ECL UFR85 (TEM-1, CTX-M-15, AmpC), ATB alone
  MIC: > 256 µg/mL
[1]; strain ECL UFR85 (TEM-1, CTX-M-15, AmpC), CLA @ 4 μg/ml+ ATB
  MIC: > 128 µg/mL
[1]; strain ECL UFR194 (OXA-48), ATB alone
  MIC: > 128 µg/mL
[1]; strain ECL UFR194 (OXA-48), CLA @ 4 μg/ml+ ATB
  MIC: > 128 µg/mL
[1]; strain ECL UFR195 (TEM-1, CTX-M-15, OXA-1, OXA-48), ATB alone
  MIC: > 128 µg/mL
[1]; strain ECL UFR195 (TEM-1, CTX-M-15, OXA-1, OXA-48), CLA @ 4 μg/ml+ ATB
  MIC: > 128 µg/mL
[1]; strain ECL UFR196 (TEM-1, CTX-M-15, OXA-1, OXA-48), ATB alone
  MIC: > 128 µg/mL
[1]; strain ECL UFR196 (TEM-1, CTX-M-15, OXA-1, OXA-48), CLA @ 4 μg/ml+ ATB
  MIC: > 128 µg/mL
[1]; strain ECL UFR200 (TEM-1, SHV-12, KPC-2), ATB alone
  MIC: > 128 µg/mL
[1]; strain ECL UFR200 (TEM-1, SHV-12, KPC-2), CLA @ 4 μg/ml+ ATB
  MIC: > 128 µg/mL
[1]; strain ECL UFR195
  MIC ATB in combination: 256 µg/mL
[1]; strain ECL UFR197
  MIC ATB in combination: 256 µg/mL
[2]
  MIC ATB in combination: 128 µg/mL
[2]; ECO 5302, AF1 @ 4 μg/mL
  MIC ATB in combination: 256 µg/mL
[2]; ECO 131119, AF1 @ 4 μg/mL
  MIC ATB in combination: 16 µg/mL
[2]; ECO 180070, AF1 @ 4 μg/mL
  MIC ATB in combination: <=1 μg/mL
[2]; ECO 190314, AF1 @ 4 μg/mL
  MIC ATB in combination: <=1 μg/mL
[2]; ECO 190317, AF1 @ 4 μg/mL
  MIC ATB in combination: 64 µg/mL
[2]; ECO 190457, AF1 @ 4 μg/mL
  MIC ATB in combination: 64 µg/mL
[2]; ECO 190549, AF1 @ 4 μg/mL
  MIC ATB in combination: <=1 μg/mL
[2]; ECO 200159, AF1 @ 4 μg/mL
  MIC ATB in combination: <=1 μg/mL
[2]; ECO 200259, AF1 @ 4 μg/mL
  MIC ATB in combination: <=1 μg/mL
[2]; ECO 200344, AF1 @ 4 μg/mL
  MIC ATB in combination: <=1 μg/mL
[2]; ECO 260096, AF1 @ 4 μg/mL
  MIC ATB in combination: <=1 μg/mL
[2]; ECO 260304, AF1 @ 4 μg/mL
  MIC ATB in combination: <=1 μg/mL
[2]; ECO 260508, AF1 @ 4 μg/mL
  MIC ATB in combination: 64 µg/mL
[2]; ECO RGN238, AF1 @ 4 μg/mL
  MIC ATB in combination: 256 µg/mL
[2]; ECO UFR15, AF1 @ 4 μg/mL
  MIC ATB in combination: 16 µg/mL
[2]; ECO UFR18, AF1 @ 4 μg/mL
  MIC ATB in combination: 64 µg/mL
[2]; ECO UFR19, AF1 @ 4 μg/mL
  MIC ATB in combination: 64 µg/mL
[2]; ECO UFR61O, AF1 @ 4 μg/mL
  MIC ATB in combination: 64 µg/mL
[2]; ECO UFR62, AF1 @ 4 μg/mL
  MIC ATB in combination: 16 µg/mL
[2]; ECO UFR86, AF1 @ 4 μg/mL
  MIC ATB in combination: 2 µg/mL
[2]; ECO UFR174, AF1 @ 4 μg/mL
  MIC ATB in combination: 32 µg/mL
[2]; ECO UFR175, AF1 @ 4 μg/mL
  MIC ATB in combination: 32 µg/mL
[2]; ECO UFR176, AF1 @ 4 μg/mL
  MIC ATB in combination: 32 µg/mL
[2]; ECO UFR184, AF1 @ 4 μg/mL
  MIC ATB in combination: 32 µg/mL
[2]; ECO UFR185, AF1 @ 4 μg/mL
  MIC ATB in combination: 256 µg/mL
[2]; ECO UFR186, AF1 @ 4 μg/mL
  MIC ATB in combination: 16 µg/mL
[2]; ECO UFR187, AF1 @ 4 μg/mL
  MIC ATB in combination: 16 µg/mL
[2]; ECO UFR189, AF1 @ 4 μg/mL
  MIC ATB in combination: 4 µg/mL
[2]; ECO UFR190, AF1 @ 4 μg/mL
  MIC ATB in combination: 8 µg/mL
[2]; ECO UFR191, AF1 @ 4 μg/mL
  MIC ATB in combination: 8 µg/mL
[2]; ECO UFR207, AF1 @ 4 μg/mL
  MIC ATB in combination: 32 µg/mL
[2]; ECO UFR208, AF1 @ 4 μg/mL
  MIC ATB in combination: 256 µg/mL
[2]; ECO UFR209, AF1 @ 4 μg/mL
  MIC ATB in combination: 4 µg/mL
[2]; ECO UFR210, AF1 @ 4 μg/mL
  MIC ATB in combination: <=1 μg/mL
[2]; ECO UFR211, AF1 @ 4 μg/mL
  MIC ATB in combination: <=1 μg/mL
[2]; ECO UFR212, AF1 @ 4 μg/mL
  MIC ATB in combination: 64 µg/mL
[2]; ECO UFR218, AF1 @ 4 μg/mL
  MIC ATB in combination: 8 µg/mL
[2]; strain ECO 131119 (TEM-1, OXA-48), ATB alone
  MIC: > 1020 µg/mL
[2]; strain ECO 131119 (TEM-1, OXA-48), CLA @ 4 μg/ml+ ATB
  MIC: > 512 µg/mL
[2]; strain ECO 180070 (TEM-1, CTX-M-15), CLA @ 4 μg/ml+ ATB
  MIC: 16 µg/mL
[2]; strain ECO 190314 (CTX-M-1), CLA @ 4 μg/ml+ ATB
  MIC: 8 µg/mL
[2]; strain ECO 190317 (TEM-1, SHV-12, CTX-M-15, OXA-1), ATB alone
  MIC: > 1020 µg/mL
[2]; strain ECO 190317 (TEM-1, SHV-12, CTX-M-15, OXA-1), CLA @ 4 μg/ml+ ATB
  MIC: 64 µg/mL
[2]; strain ECO 190549 (CTX-M-1), CLA @ 4 μg/ml+ ATB
  MIC: 8 µg/mL
[2]; strain ECO 200159 (TEM-1, CTX-M-14), CLA @ 4 μg/ml+ ATB
  MIC: 8 µg/mL
[2]; strain ECO 200259 (CTX-M-14), CLA @ 4 μg/ml+ ATB
  MIC: 8 µg/mL
[2]; strain ECO 200344 (CTX-M-1), CLA @ 4 μg/ml+ ATB
  MIC: 16 µg/mL
[2]; strain ECO 260096 (CTX-M-132), CLA @ 4 μg/ml+ ATB
  MIC: 4 µg/mL
[2]; strain ECO 260304 (CTX-M-15), CLA @ 4 μg/ml+ ATB
  MIC: 4 µg/mL
[2]; strain ECO 260508 (TEM-1, CTX-M-15, OXA-1), CLA @ 4 μg/ml+ ATB
  MIC: 64 µg/mL
[2]; strain ECO RGN238 (OXA-1), ATB alone
  MIC: > 1020 µg/mL
[2]; strain ECO UFR207 (CTX-M-15), CLA @ 4 μg/ml+ ATB
  MIC: 32 µg/mL
[2]; strain ECO UFR209 (TEM-1, CTX-M-15), CLA @ 4 μg/ml+ ATB
  MIC: 32 µg/mL
[2]; strain ECO UFR210 (SHV-12), CLA @ 4 μg/ml+ ATB
  MIC: 8 µg/mL
[2]; strain ECO UFR211 (TEM-24), CLA @ 4 μg/ml+ ATB
  MIC: 8 µg/mL
[2]; strain ECO UFR218 (TEM-1, SHV-1, CTX-M-15), CLA @ 4 μg/ml+ ATB
  MIC: 32 µg/mL
